Data: ChEMBL document CHEMBL4507276 (2021)

Experiments:
[1] = target: Activin receptor type-2A (Homo sapiens) (UniProt P27037); settings: Compound concentration 1000.0 nM
[2] = target: Calcium/calmodulin-dependent protein kinase type II subunit alpha (Homo sapiens) (UniProt Q9UQM7); settings: Compound concentration 1000.0 nM
[3] = target: Cyclin-dependent kinase 3 (Homo sapiens) (UniProt Q00526); settings: Compound concentration 1000.0 nM
[4] = target: Death-associated protein kinase 1 (Homo sapiens) (UniProt P53355); settings: Compound concentration 1000.0 nM
Sequence of Death-associated protein kinase 1 (Homo sapiens) (P53355 whole entry, looked up, the tested form may be a part): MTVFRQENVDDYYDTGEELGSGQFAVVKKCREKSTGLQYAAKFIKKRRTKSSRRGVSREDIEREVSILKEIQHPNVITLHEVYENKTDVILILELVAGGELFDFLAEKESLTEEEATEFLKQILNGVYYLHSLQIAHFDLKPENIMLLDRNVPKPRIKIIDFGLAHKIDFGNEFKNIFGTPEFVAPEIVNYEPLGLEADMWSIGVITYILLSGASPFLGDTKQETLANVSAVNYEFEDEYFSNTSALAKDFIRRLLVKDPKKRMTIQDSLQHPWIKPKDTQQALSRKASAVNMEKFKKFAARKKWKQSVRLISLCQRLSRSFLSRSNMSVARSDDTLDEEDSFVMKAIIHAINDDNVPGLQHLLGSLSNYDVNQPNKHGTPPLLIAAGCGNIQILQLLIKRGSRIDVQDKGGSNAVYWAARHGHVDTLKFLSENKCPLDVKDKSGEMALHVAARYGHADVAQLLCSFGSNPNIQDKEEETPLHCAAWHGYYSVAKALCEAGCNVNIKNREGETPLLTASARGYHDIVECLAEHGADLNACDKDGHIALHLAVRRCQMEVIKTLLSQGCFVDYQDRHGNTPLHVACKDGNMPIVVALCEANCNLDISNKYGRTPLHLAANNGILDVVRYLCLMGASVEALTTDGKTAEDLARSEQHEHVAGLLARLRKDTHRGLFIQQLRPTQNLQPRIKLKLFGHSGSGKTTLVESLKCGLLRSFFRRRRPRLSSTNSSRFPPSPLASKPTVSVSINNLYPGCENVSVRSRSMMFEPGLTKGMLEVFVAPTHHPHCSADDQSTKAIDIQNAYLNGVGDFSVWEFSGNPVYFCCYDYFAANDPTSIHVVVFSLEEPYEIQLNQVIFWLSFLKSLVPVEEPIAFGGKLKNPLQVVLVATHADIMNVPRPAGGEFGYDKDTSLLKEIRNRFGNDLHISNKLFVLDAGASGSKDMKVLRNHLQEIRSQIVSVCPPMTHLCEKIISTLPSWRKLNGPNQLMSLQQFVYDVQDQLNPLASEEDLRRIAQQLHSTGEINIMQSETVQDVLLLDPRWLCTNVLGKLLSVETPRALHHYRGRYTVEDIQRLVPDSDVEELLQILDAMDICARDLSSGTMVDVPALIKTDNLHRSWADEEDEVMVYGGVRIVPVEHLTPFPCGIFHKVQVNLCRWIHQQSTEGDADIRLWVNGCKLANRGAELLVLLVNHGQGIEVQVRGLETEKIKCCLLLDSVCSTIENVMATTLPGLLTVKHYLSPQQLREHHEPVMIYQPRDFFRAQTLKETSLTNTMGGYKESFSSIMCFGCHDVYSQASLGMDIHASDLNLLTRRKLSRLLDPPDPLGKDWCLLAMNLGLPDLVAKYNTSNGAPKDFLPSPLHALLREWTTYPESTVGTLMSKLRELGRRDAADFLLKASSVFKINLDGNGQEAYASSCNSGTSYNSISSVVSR

[5] = target: T1, Discoidin domain-containing receptor 2 (Homo sapiens) (UniProt Q16832); settings: Compound concentration 1000.0 nM
T1 sequence (whole entry): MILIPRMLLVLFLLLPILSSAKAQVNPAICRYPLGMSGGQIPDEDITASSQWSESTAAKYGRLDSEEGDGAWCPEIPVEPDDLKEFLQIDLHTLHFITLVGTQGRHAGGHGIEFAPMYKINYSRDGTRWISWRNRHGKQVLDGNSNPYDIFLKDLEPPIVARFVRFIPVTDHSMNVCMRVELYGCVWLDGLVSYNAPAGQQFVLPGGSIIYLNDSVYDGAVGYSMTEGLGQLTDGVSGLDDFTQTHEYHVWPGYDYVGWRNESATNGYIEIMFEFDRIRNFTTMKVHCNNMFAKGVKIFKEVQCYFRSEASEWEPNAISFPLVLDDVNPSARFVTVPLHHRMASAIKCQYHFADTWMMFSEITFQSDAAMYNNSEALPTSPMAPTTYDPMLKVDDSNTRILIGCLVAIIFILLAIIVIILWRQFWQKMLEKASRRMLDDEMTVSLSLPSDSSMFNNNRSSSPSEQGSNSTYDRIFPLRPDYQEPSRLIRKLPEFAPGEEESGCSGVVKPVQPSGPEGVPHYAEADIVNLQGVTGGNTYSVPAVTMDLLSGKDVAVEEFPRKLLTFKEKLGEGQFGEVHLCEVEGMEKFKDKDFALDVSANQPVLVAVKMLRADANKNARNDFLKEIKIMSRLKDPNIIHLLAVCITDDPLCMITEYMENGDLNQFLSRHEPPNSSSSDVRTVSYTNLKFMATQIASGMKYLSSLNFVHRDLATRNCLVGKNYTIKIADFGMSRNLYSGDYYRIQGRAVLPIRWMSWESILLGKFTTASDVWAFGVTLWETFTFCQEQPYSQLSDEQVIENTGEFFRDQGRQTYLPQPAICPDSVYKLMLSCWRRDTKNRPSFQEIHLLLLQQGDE

[6] = test system: Epidermal growth factor receptor (Homo sapiens), P00533 [UNDEFINED MUTATION]; settings: Compound concentration 1000.0 nM
[7] = target: Receptor tyrosine-protein kinase erbB-4 (Homo sapiens) (UniProt Q15303); settings: Compound concentration 1000.0 nM
Sequence of Receptor tyrosine-protein kinase erbB-4 (Homo sapiens) (Q15303 whole entry): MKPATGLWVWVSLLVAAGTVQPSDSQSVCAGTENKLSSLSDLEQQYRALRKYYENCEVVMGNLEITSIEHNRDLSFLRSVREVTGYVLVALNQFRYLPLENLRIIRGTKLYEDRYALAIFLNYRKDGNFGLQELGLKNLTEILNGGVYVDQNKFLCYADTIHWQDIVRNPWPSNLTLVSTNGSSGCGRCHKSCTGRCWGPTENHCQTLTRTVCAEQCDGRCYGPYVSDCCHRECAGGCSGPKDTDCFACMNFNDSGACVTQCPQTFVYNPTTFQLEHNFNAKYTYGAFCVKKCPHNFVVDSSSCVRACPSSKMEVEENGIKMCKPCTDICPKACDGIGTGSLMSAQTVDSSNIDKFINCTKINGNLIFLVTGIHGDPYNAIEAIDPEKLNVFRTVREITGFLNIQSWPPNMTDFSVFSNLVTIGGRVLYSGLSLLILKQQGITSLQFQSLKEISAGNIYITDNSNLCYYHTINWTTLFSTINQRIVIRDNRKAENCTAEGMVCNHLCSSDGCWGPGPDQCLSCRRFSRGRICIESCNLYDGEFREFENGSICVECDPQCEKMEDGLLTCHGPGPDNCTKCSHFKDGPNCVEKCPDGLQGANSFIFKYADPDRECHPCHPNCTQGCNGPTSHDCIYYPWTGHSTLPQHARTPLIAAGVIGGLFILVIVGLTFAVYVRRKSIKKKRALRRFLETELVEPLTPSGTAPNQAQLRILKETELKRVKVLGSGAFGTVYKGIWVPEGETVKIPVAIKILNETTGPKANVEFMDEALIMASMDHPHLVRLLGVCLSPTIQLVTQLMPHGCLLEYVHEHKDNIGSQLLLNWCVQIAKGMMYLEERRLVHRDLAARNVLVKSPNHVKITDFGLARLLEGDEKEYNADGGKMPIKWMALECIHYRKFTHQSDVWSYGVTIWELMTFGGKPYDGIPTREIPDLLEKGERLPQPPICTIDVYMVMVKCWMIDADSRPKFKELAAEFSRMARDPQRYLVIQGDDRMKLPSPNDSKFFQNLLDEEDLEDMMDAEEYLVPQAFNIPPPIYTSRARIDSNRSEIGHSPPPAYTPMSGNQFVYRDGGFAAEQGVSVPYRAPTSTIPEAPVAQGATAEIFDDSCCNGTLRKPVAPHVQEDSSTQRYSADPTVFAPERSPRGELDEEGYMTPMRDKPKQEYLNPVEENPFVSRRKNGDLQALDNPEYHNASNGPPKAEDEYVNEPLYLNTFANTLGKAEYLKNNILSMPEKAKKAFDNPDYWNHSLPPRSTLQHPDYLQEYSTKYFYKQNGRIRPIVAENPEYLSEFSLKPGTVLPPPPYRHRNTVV

[8] = target: Mitogen-activated protein kinase 1 (Homo sapiens) (UniProt P28482); settings: Compound concentration 1000.0 nM
[9] = test system: Receptor-type tyrosine-protein kinase FLT3 (Homo sapiens), P36888 [UNDEFINED MUTATION]; settings: Compound concentration 1000.0 nM
[10] = target: LIM domain kinase 2 (Homo sapiens) (UniProt P53671); settings: Compound concentration 1000.0 nM
[11] = target: Mitogen-activated protein kinase kinase kinase 9 (Homo sapiens) (UniProt P80192); settings: Compound concentration 1000.0 nM
[12] = target: T2, Serine/threonine-protein kinase 3 (Homo sapiens) (UniProt Q13188); settings: Compound concentration 1000.0 nM
T2 sequence (whole entry): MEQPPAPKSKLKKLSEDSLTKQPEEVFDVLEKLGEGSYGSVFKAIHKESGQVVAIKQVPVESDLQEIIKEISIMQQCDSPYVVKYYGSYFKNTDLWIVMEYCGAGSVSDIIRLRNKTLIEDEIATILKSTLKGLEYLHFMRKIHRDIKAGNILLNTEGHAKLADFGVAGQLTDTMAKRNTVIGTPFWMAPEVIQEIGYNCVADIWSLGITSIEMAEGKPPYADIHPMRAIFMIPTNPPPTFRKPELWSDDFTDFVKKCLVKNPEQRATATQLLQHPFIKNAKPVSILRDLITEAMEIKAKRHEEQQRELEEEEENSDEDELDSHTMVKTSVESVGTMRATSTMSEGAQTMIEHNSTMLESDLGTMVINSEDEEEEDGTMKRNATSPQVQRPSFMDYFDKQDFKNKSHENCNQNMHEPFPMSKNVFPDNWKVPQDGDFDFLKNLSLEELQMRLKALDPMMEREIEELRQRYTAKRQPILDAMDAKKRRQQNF

[13] = target: Serine/threonine-protein kinase Nek5 (Homo sapiens) (UniProt Q6P3R8); settings: Compound concentration 1000.0 nM
[14] = target: Serine/threonine-protein kinase D1 (Homo sapiens) (UniProt Q15139); settings: Compound concentration 1000.0 nM
Sequence of Serine/threonine-protein kinase D1 (Homo sapiens) (Q15139 whole entry): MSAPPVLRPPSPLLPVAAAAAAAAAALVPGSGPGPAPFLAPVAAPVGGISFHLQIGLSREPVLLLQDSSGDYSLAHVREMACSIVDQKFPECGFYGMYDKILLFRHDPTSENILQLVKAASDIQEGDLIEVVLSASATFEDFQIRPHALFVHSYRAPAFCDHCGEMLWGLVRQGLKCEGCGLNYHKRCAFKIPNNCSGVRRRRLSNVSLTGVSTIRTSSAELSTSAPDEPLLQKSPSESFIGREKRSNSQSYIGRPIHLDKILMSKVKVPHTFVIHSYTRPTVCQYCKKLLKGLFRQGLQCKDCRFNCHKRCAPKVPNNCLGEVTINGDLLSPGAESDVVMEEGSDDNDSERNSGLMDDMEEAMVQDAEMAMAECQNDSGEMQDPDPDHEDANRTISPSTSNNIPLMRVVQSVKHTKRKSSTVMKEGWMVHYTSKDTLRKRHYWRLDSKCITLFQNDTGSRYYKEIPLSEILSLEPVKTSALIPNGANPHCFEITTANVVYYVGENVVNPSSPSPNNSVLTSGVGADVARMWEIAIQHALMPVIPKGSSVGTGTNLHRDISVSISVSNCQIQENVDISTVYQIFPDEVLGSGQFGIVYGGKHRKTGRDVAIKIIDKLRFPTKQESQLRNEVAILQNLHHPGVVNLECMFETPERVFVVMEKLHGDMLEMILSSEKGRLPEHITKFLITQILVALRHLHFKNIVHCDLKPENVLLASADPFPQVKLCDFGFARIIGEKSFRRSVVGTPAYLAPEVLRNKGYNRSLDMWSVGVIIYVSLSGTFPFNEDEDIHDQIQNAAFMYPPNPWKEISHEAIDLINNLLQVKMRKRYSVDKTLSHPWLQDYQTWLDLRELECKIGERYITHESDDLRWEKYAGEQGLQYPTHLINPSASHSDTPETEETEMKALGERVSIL

[15] = target: Serine/threonine-protein kinase RIO2 (Homo sapiens) (UniProt Q9BVS4); settings: Compound concentration 1000.0 nM
Sequence of Serine/threonine-protein kinase RIO2 (Homo sapiens) (Q9BVS4 whole entry, looked up): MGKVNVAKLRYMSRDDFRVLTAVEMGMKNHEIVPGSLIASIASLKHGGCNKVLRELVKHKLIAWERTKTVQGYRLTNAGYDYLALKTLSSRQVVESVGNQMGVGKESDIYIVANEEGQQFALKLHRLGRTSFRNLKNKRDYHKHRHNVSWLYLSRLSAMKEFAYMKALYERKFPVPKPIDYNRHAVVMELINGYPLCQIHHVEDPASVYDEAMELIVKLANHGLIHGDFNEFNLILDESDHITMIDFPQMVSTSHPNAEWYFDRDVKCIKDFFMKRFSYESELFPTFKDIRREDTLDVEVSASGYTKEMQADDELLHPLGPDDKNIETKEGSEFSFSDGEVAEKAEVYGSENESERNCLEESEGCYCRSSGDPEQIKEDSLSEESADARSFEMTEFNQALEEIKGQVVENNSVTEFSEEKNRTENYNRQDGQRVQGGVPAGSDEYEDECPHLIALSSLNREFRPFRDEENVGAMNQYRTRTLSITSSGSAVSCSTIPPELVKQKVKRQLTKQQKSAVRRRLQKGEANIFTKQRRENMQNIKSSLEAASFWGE

[16] = target: Serine/threonine-protein kinase WNK2 (Homo sapiens) (UniProt Q9Y3S1); settings: Compound concentration 1000.0 nM
[17] = target: T3, 5-hydroxytryptamine receptor 1A (Homo sapiens) (UniProt P08908); settings: Compound concentration 10.0 uM
T3 sequence (whole entry): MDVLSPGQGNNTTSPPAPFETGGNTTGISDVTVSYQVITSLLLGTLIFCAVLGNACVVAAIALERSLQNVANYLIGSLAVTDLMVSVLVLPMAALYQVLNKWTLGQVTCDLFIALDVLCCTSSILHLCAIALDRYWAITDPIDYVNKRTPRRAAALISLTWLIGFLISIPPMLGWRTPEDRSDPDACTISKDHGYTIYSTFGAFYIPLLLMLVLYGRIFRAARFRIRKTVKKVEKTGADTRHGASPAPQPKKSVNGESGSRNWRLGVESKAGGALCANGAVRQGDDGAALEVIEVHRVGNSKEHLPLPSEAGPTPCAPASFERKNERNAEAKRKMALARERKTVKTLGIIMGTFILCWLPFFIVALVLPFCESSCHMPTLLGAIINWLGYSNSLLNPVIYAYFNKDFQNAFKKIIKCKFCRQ

[18] = target: D(3) dopamine receptor (Homo sapiens) (UniProt P35462); settings: Compound concentration 10.0 uM
[19] = target: GABA-A receptor; anion channel (Rattus norvegicus) (UniProt O09028+P15431+P18506+P18508+P19969+P20236+P23574+P23576+P28471+P28473+P30191+P62813+P63079+P63138+Q91ZM7+Q9ES14); settings: Compound concentration 10.0 uM

Sequence of Activin receptor type-2A (Homo sapiens) (P27037 whole entry): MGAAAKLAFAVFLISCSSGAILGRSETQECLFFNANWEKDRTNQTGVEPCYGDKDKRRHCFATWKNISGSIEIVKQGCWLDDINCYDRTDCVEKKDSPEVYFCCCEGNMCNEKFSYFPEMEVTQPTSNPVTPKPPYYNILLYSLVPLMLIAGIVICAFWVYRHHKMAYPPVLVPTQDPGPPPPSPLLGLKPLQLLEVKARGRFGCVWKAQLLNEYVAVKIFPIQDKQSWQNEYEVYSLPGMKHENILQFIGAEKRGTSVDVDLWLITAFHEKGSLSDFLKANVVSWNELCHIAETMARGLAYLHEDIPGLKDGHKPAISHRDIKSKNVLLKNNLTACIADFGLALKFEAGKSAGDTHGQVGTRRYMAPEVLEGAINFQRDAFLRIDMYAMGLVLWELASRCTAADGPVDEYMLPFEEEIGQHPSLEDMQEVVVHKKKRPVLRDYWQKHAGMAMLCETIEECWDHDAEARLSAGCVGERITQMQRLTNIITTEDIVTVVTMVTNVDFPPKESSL
Sequence of Cyclin-dependent kinase 3 (Homo sapiens) (Q00526 whole entry, looked up): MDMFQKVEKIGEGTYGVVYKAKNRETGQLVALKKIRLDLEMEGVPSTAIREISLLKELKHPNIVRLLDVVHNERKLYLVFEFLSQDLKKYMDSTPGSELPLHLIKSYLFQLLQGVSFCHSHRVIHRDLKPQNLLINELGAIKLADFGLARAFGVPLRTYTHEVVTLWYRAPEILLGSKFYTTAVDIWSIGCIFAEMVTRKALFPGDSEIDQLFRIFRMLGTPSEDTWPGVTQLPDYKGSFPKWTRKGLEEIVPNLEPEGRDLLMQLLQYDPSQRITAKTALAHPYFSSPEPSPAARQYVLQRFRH

CN(C)C(=O)Cn1cc(-c2nc(C3(c4ccc(-c5cnc(N)nc5)cc4)CC3)no2)cn1 [BI 0153]
inactive: residual activity [1] 84% | residual activity [2] 100% | residual activity [3] 100% | residual activity [4] 100% | residual activity [5] 100% | residual activity [6] 67% | residual activity [7] 100% | residual activity [8] 81% | residual activity [9] 85% | residual activity [10] 85% | residual activity [11] 91% | residual activity [12] 100% | residual activity [13] 89% | residual activity [14] 100% | residual activity [15] 76% | residual activity [16] 67% | inhibition [17] 31.5% | inhibition [18] -2.44% | inhibition [19] 19.4%

CN(C)C(=O)Cn1cc(-c2nc([C@@](C)(c3ccc(-c4cnc(N)nc4)cc3)C3CC3)no2)cn1 [BI 665915]
inactive: residual activity [1] 81% | residual activity [2] 96% | residual activity [3] 100% | residual activity [4] 82% | residual activity [5] 89% | residual activity [6] 100% | residual activity [7] 100% | residual activity [8] 100% | residual activity [9] 100% | residual activity [10] 85% | residual activity [11] 100% | residual activity [12] 100% | residual activity [13] 89% | residual activity [14] 100% | residual activity [15] 87% | residual activity [16] 100% | inhibition [17] 6.78% | inhibition [18] -5.97% | inhibition [19] 25.5%
